Measured values as given in publication PMC9692619, “Insights into the 3D In Vitro Permeability and In Vivo Antioxidant Protective Effects of Kiwiberry Leaf Extract: A Step Forward to Human Nutraceutical Use” (International Journal of Molecular Sciences, 2022).
Values joined by “and” are separate entries in the source; they are usually repeats but may differ in a detail not shown here. Equal entries are not always repeated. Marks after values point to notes of the source that are not given here.

What was measured:
[1] = system: co-culture model with Caco-2 and HT29-MTX; assay: 3D intestinal permeability assay (co-culture, HPLC-MS of basolateral samples); assay type: in vitro ADME; details: for Permeability (%): 3D intestinal model, compound of kiwiberry leaf extract; for permeation in the 3D intestinal model: time not stated; for permeation (detection after the 3D intestinal permeation assay): aglycones, result in words
Method: The intestinal permeability was carried out in a co-culture model with Caco-2 and HT29-MTX [40]. The extract was added to the apical side of the model. A sample from the basolateral side was collected at different timepoints (0, 15, 30, 45, 60, 90, 120, 150, 180, and 240 min). Samples were analyzed by HPLC-MS assay (Section 3.5). The TEER of the model was evaluated before, during and at the end of the permeability assay using an EVOM Epithelial Volthometer Instrument equipped with a chopstick electrode (World Precision Instruments, Sarasota, FL, USA).
The phenolic compounds that permeated the intestinal 3D model were identified and quantified according to Silva et al.. The samples were diluted 10 times with methanol-water (50:50) and centrifuged at 13,300× […] for 15 min. The supernatant was then transferred to a vial for the LC-MS analysis. The standard calibration curves were: • Chlorogenic acid titration curve: y = 198.01x + 20.138 (R^2 = 1) • Rutin titration curve: y = 58.564x + 41.752 (R^2 = 0.9998)
Regarding the multiple reaction monitoring (MRM), the values were: • Chlorogenic acid: 353.5 > 191.2 • Rutin: 609.4 > 301.3 • Coumaroyl quinic acid: 337.3 > 191.3

SOD = assay: In vivo antioxidant parameter: SOD activity in kidney, liver, serum; set-up: species or system Wistar rats; details: 50 mg/kg bw oral once daily 7 days
Method: (§1) The homogenate supernatants were analyzed by biochemical assays.
(§2) The antioxidant enzyme activities, namely SOD, CAT, and GSH-Px, were evaluated in the homogenate supernatants from organs through commercial enzymatic kits from Sigma-Aldrich (Steinheim, Germany). The lipid peroxidation was determined through the determination of MDA levels using a commercial kit (Merck, Darmstadt, Germany).

CAT = assay: In vivo antioxidant parameter: CAT activity in kidney, liver, serum; set-up: species or system Wistar rats; details: 50 mg/kg bw oral once daily 7 days
Method: as §1, §2

MDA = assay: Lipid peroxidation: MDA levels in kidney, liver, serum; assay type: in vivo, Wistar rats; details: 50 mg/kg bw oral once daily 7 days
Method: as §1, §2

kidney and liver tissues = assay: Histopathological analysis of kidney and liver (hematoxylin-eosin); details: oral gavage once daily 7 days; extract 50 and 75 mg/kg bw, vitamin C 50 mg/kg bw
Method: Young male Wistar rats of 5–6 weeks of age (140–207 g) were acquired from the Jackson Laboratory (Bar Harbor, ME, USA) and acclimatized in polypropylene cages to the environmental conditions (12 h dark/light cycle, controlled temperature (21 ± 2 °C), relative humidity (55 ± 10%) and fed ad libitum with standard pellet diet and water for 1 week before the experiment).
All groups were treated once daily for 7 days by oral gavage after a fasting period of 4 h. The body weight of each animal was recorded twice a week during the experimental period. Blood samples were collected from tail vein and a glucometer (Accu-Chek, Roche® Diabetes Care, Inc., Mississauga, QC, Canada) was used to measure the glucose levels.
After 7 days, the animals were sacrificed by pentobarbital overdose (50 mg/kg bw). The organs (liver and kidneys) were removed, and the blood was collected by cardiac puncture. Serum was separated by centrifugation (20,000× g, 15 min, 4 °C) and stored at −80 °C for biochemical analyses [42]. The organs were dissected from each animal and subsequently mixed with 50 mM potassium phosphate, pH 7.0, and centrifuged (20,000× g, 15 min, 4 °C), according to the kit manufacturer’s instructions. The homogenate supernatants were analyzed by biochemical assays.
The tissue samples (liver and kidney) were preserved in 10% formalin. […]

[2] = Serum biochemical analysis (TC, HDL-C, LDL-C, TG) after 7 days oral treatment; assay type: in vivo, Wistar rats; details: 50 mg/kg bw oral once daily 7 days
Method: as §1
Serum was used to analyze the TC, HDL-C, and LDL-C using commercial kits from Sigma-Aldrich (Steinheim, Germany). TG levels were estimated in the blood serum through a commercial kit from Abcam (Cambridge, MA, USA).

GSH-Px = assay: In vivo antioxidant parameter: GSH-Px activity in kidney, liver, serum; set-up: species or system Wistar rats; details: 50 mg/kg bw oral once daily 7 days
Method: as §1, §2

| Permeability (%) ([1]; 15 min) | Permeability (%) ([1]; 30 min) | Permeability (%) ([1]; 45 min) | Permeability (%) ([1]; 60 min) | Permeability (%) ([1]; 90 min) | Permeability (%) ([1]; 120 min) | Permeability (%) ([1]; 180 min) | Permeability (%) ([1]; 240 min) | permeation in the 3D intestinal model [1] | permeation (detection after the 3D intestinal permeation assay) [1] | Compound | further results |
| --- | --- | --- | --- | --- | --- | --- | --- | --- | --- | --- | --- |
| <LOD | 1.79 ± 0.09% | <LOD | <LOD | <LOD | <LOD | <LOD | 2.49% | – | – | O=C(/C=C/c1ccc(O)c(O)c1)O[C@@H]1C[C@](O)(C(=O)O)C[C@@H](O)[C@H]1O [Chlorogenic acid] | Permeability (%) ([1]; 240 min, listed as Chlorogenic Acid): 2.49 ± 0.13% |
| 1.04 ± 0.05% | 18.81 ± 0.94% | 7.99 ± 0.39% | 13.50 ± 0.68% | 19.74 ± 0.99% | 14.60 ± 0.73% | 24.32 ± 1.22% | 34.23% | higher than 25% | – | O=C(/C=C/c1ccc(O)cc1)O[C@@H]1C[C@](O)(C(=O)O)C[C@@H](O)[C@H]1O [Coumaroyl quinic acid] | Permeability (%) ([1]; 240 min, listed as Coumaroyl Quinic Acid): 34.23 ± 1.71% |
| – | – | – | – | – | – | – | – | – | absence of permeation | O=c1c(O)c(-c2ccc(O)c(O)c2)oc2cc(O)cc(O)c12 [quercetin] | – |

More lines, now with the values behind:

| Compound | Permeability (%) ([1]; 15 min) | Permeability (%) ([1]; 30 min) | Permeability (%) ([1]; 45 min) | Permeability (%) ([1]; 60 min) | Permeability (%) ([1]; 90 min) | Permeability (%) ([1]; 120 min) | Permeability (%) ([1]; 180 min) | Permeability (%) ([1]; 240 min) | permeation in the 3D intestinal model [1] | permeation (detection after the 3D intestinal permeation assay) [1] | further results |
| --- | --- | --- | --- | --- | --- | --- | --- | --- | --- | --- | --- |
| C[C@@H]1O[C@@H](OC[C@H]2O[C@@H](Oc3c(-c4ccc(O)c(O)c4)oc4cc(O)cc(O)c4c3=O)[C@H](O)[C@@H](O)[C@@H]2O)[C@H](O)[C@H](O)[C@H]1O [Rutin] | 6.67 ± 0.33% | 10.89 ± 0.54% | 17.01 ± 0.85% | 14.61 ± 0.73% | 14.56 ± 0.73% | 18.50 ± 0.93% | 18.30 ± 0.92% | 25.40 ± 1.27% | higher than 25% | – | Permeability (%) ([1]; 15 min, listed as rutin): 6.67%; Permeability (%) ([1]; 240 min, listed as rutin): 25.40% |
| O=c1c(O)c(-c2ccc(O)cc2)oc2cc(O)cc(O)c12 [kaempferol] | – | – | – | – | – | – | – | – | – | absence of permeation | – |
| O=C1O[C@H]([C@@H](O)CO)C(O)=C1O [vitamin C] | – | – | – | – | – | – | – | – | – | – | SOD, Kidneys (SOD): 123.13 ± 19.27 ^b,c units/g protein; SOD, Liver (SOD): 83.71 ± 6.06 ^b units/g protein; SOD, Serum (SOD): 79.20 ± 5.76 ^b units/mL protein; CAT, Kidneys (CAT): 427,496 ± 78,015 ^b nmol/min/g protein; CAT, Liver (CAT): 3,762,450 ± 434,242 ^c nmol/min/g protein; CAT, Serum (CAT): 34,911 ± 7975 ^b nmol/min/mL protein; MDA, Kidneys (MDA): 196,748 ± 31,125 ^a nmol/g protein; MDA, Liver (MDA): 145,827 ± 10,063 ^b nmol/g protein; MDA, Serum (MDA): 746.79 ± 123.55 ^b nmol/mL protein; histopathological examination of kidneys (kidney and liver tissues): did not lead to morphological alterations; HDL-C [2]: 155.09 ± 37.71 mg/dL; LDL-C [2]: 76.24 ± 16.52 mg/dL; TG [2]: 229.76 ± 33.54 ^a mg/dL; TC ([2]; 50 mg/kg): 79.81 mg/dL and 79.81 ± 15.11 mg/dL; GSH-Px, Kidneys (GSH-Px): 136.66 ± 19.62 ^b units/g protein; GSH-Px, Liver (GSH-Px): 71.34 ± 10.94 ^b,c units/g protein; GSH-Px, Serum (GSH-Px): 20.16 ± 5.29 ^b units/mL protein |
